Data published in patent US20140045885A1, “Decoquinate, 4-hydroxyquinolones and napthoquinones combined with levamisole, Imidazothiazole, for the prevention and treatment of sarcocystosis and equine protozoal myeloencephalitis caused by Sarcocystis and Neospora and other apicomplexan protozoans” (priority 2012, published 2014).
Where two headings read alike, the source gives them in different places.

What was measured:
[1] = Safety at the treatment dose in 150 horses; assay type: in vivo, horse; conditions: decoquinate 0.5 mG/kG and levamisole 1 mG/kG alone and in combination
[2] = cited from earlier work
S. neurona = conditions: cell cultures infected with S. neurona; cited from earlier work
EPM = conditions: cited from earlier work; for cure rate / relapse rate: EPM treatment in horses; for efficacy in horses to improve one grade of disease: EPM treatment
[3] = system: S. neurona infections or EPM; experiment: Trial in horses with presumptive diagnosis of EPM; assay type: in vivo, horse
Method: A trial was initiated in which veterinarians conducted neurological examinations and determined a presumptive diagnosis of EPM. […] The phenotype of S. neurona eliciting antibody production was determined for each animal. […] A neurological exam was conducted at the end of the treatment period and two to four weeks following treatment. Two to four weeks after treatment antibody levels were again assessed for serum antibody levels to S. neurona by phenotype. […] Veterinarians involved in the study elected to start decoquinate therapy at 0.05 mG/kG if the animals had received anti-protozoal therapy in the past and the case was considered a relapse of EPM.

[4] = system: Sarcocystis neurona merozoites (SN3 strain); conditions: cited from earlier work
[5] = system: Sarcocystis neurona merozoites (SN6 strain); conditions: 0.1 microgram/ml decoquinate for 5 or 15 minutes, washed off, read at 6 weeks; cited from earlier work
[6] = system: Sarcocystis neurona merozoites (SN3 strain); conditions: 0.1 microgram/ml decoquinate for 10 or 20 minutes, washed off, cultures maintained 16 days, controls 25% CPE; cited from earlier work
[7] = system: Sarcocystis neurona merozoites (SN2 strain); conditions: 0.1 microgram/ml decoquinate for 10 or 20 minutes, washed off, cultures maintained 16 days, controls 40% CPE; cited from earlier work
[8] = in vivo; cited from earlier work
[9] = cited from earlier work; remark: listed apart in the source
[10] = horses, 5 mg/kg daily for 10 days

c1ccc([C@H]2CN3CCSC3=N2)cc1 [levamisole]
adverse reactions [1]: no adverse reactions

N#CC(c1ccc(Cl)cc1)c1c(Cl)cc(-n2ncc(=O)[nH]c2=O)cc1Cl (stereo not shown) [diclazuril]
time after feeding at which drug was found in serum ([2]; fed to horses): one
anti-S. neurona activity in cell cultures (S. neurona): has anti-S. neurona activity
cure rate (EPM): less than 25%
relapse rate (EPM): 60%
efficacy in horses to improve one grade of disease (EPM): 60%

CCCCCCCCCCOc1cc2c(O)c(C(=O)OCC)cnc2cc1OCC [decoquinate, 6-declyoxy-7-ethoxy-4-hydroxy-3-quinoline-carboxylic acid ethyl ester]
time of therapy until noted improvement ([3]; decoquinate alone 0.05 mG/kG versus decoquinate/levamisole 0.5 mG/kG and 1.0 mg/kG): > 5 days
treatment outcome in mildly afflicted horses ([3]; prevention dose 0.05 mG/kG decoquinate alone, 90 days, 7 horses): success obtained in all the horses
success in historically relapsing horses ([3]; relapse cases after Marquis (17) or pyrimethamine/sulfadiazine (2), decoquinate therapy started at 0.05 mG/kG): 100%
reduction in merozoite production ([4]; 0.0001 microgram/ml continuously for 10 days): 40%
reduction in merozoite production ([4]; 0.001 microgram/ml continuously for 10 days): 87%
reduction in merozoite production ([4]; 0.01 microgram/ml continuously for 10 days): 98%
parasites or parasite induced lesions in treated infected flasks [5]: No parasites or parasite induced lesions were seen
parasites or parasite induced lesions in treated infected flasks [6]: No parasites or parasite induced lesions were seen
cytopathic effect (CPE) [7]: 5%
adverse reactions [1]: no adverse reactions

Cc1cc(-n2c(=O)[nH]c(=O)n(C)c2=O)ccc1Oc1ccc(SC(F)(F)F)cc1 [toltrazuril]
complications, serum chemistry values, complete blood counts [8]: has not been shown to result in any complications
mean CSF concentration [2, 10]: 160 µg/mL
plasma levels [2, 10]: 20000 ng/mL
oral absorption ([2]; in vivo, po): good oral absorption
elimination time ([2]; in vivo): 48 to 72 h
cure rate (EPM): less than 25%
relapse rate (EPM): 60%
efficacy in horses to improve one grade of disease (EPM): 60%
lipid solubility [9]: good lipid solubility
